In brackets after ≈: the same amount, converted by molar mass. Where a name gives a salt, the structure may show the parent alone. Read-outs that look alike come from different tables or passages of the source.

For one assay, the system named is L1210 cells. Briefly: L1210 in vitro cell growth inhibition. In kind it is cell-based. The settings on record: Mus musculus, 72 h; L1210 murine leukemia cells, three days incubation, 50% inhibition of growth; read-out: L1210 in vitro ID50. Here is the method:
Another test protocol uses L1210 cells, a murine leukemia cell line, grown in RPMI 1640 supplemented with 5% fetal bovine serum and gentamicin ([…]). Drug dilutions are prepared in the appropriate solvent and 20 µl of each dilution are added to 24-well Linbro tissue culture plates, followed by the addition of 2.0 ml of cell suspension containing 3 x 10^4 cells per ml. Solvent and medium controls are included in each test. After incubation at 37°C for three days in 5% CO2, the contents of each well are removed and the cells counted in a ZBI Counter counter. Percent growth are calculated relative to the controls and the levels of drug activity are expressed as ID50 in moles per liter.

The test system of assay [1] is lymphocytic leukemia P388. Nature of the assay: in vivo lymphocytic leukemia P388 test. The note with it: Mus musculus, P388, ip, 120 h, mice, survival time treated/control, read-out: P388 in vivo T/C×100; for response vs control in vivo at 12.5 mg/kg: Dose 12.5 mg/kg intraperitoneally once daily for five days; for response vs control in vivo at 25 mg/kg: Dose 25 mg/kg intraperitoneally once daily for five days; for response vs control in vivo at 50 mg/kg: Dose 50 mg/kg intraperitoneally once daily for five days; for response vs control in vivo at 6.25 mg/kg: Dose 6.25 mg/kg intraperitoneally once daily for five days; for response vs control in vivo at 100 mg/kg: Dose 100 mg/kg intraperitoneally once daily for five days. Here is the method: Another test protocol is the in vivo lymphocytic leukemia P388 test. The animals used are either male or female CD2F, mice. There are six or seven animals per test group. The tumor transplant is by intraperitoneal injection of dilute ascitic fluid containing cells of lymphocytic leukemia P388. The test compounds are administered intraperitoneally once daily for five consecutive days at various doses following tumor inoculation. The animals are weighed and survivors are recorded on a regular basis for 30 days. A compound is designated "toxic" if, at a given dose, all animals died prior to four days after the first injection of drug. A ratio of survival time for treated (T)/control (C) animals is calculated. A criterion for efficacy is a ratio T/C times 100 greater than or equal to 125. See Cancer Chemotherapy Reports, Part 3, 3, 1 (1972) for a comprehensive discussion of the protocol.

The test system of assay [2] is Corynebacterium Sp. ATCC 21698. Briefly: in vitro antibacterial (ABMF) microdilution susceptibility test. In kind it is cell-based. The settings on record: ATCC21698, Mueller-Hinton broth microdilution, 37°C, 16-24 hours, read-out: ABMF Minimal Inhibitory Concentration (µ/ml) Coryn. sp. The text has this:
(§1) Still another test protocol is the in vitro antibacterial (ABMF) test which is a recognized standard microdilution susceptibility procedure in Mueller-Hinton broth against Gram-positive and Gram-negative bacterial test organisms. The procedure is a modification of a state-of-the-art procedure reported in Manual of Clinical Microbiology, Lennette, E. H., ed., by Barry, A. L. and C. Thornsberry at pages 463-474 and by Gavan, T. L. and A. L. Barry at pages 459―462, American Society for Microbiology, Washington, 1980.
(§2) In the test, a given bacterial culture is used to inoculate individual test wells of microdilution trays containing growth medium and test compound, the latter in a microdilution series: 1000, 333.111, 37,12, 4, 1.4, and 0.46 micrograms per milliliter. […] For convenience, values are reported for Escherichia coli, Corynebacterium Sp. ATCC 21698, Salmonella typhimurium, Streptococcus pneumoniae, and Rhodotorula aurantiaca.
(Broth dilution looks for growth in wells or tubes with falling amounts of substance.)

The subject of another assay is Escherichia coli. The description is as above. In kind it is cell-based. The note with it: Mueller-Hinton broth microdilution, 37°C, 16-24 hours, read-out: ABMF Minimal Inhibitory Concentration (µ/ml) E. coli.
From the text: as §1, §2

The subject of a further assay is Rhodotorula aurantiaca. The assay is described as above. In kind it is cell-based. The settings on record: Buckleyzyma aurantiaca, read-out: ABMF Minimal Inhibitory Concentration (µ/ml) R. aurant.
From the text: as §1, §2

Another assay relates to Salmonella typhimurium. The description is as above. In kind it is cell-based. The note with it: Salmonella enterica, Mueller-Hinton broth microdilution, 37°C, 16-24 hours, read-out: ABMF Minimal Inhibitory Concentration (µ/ml) S. typh.
From the text: as §1, §2

The next assay has as its system Streptococcus pneumoniae. The assay is described as above. In kind it is cell-based. The note with it: Mueller-Hinton broth microdilution, 37°C, 16-24 hours, read-out: ABMF Minimal Inhibitory Concentration (µ/ml) S. pneum.
From the text: as §1, §2

The mark [3] stands for this setting: Mueller-Hinton broth microdilution, 37°C, 16-24 hours.

For `O=[N+]([O-])c1ccc2c3c(nn2CCNCCO)-c2cc(O)ccc2Oc13` [Example 15, 2-[2-[(2-Hydroxyethyl)amino]ethyl]-5-nitro-2H-[1]benzopyrano[4,3,2-cd]indazol-9-01, hydrochloride], in the assay on L1210 cells, the IC50 amounted to 0.015 µM. For the same compound, the response vs control in vivo at 12.5 mg/kg in assay [1] turned out to be 190%. Besides, the response vs control in vivo at 25 mg/kg in assay [1] came out at 218%. Also, in assay [1], the response vs control in vivo at 50 mg/kg stood at 230%. Also, the MIC in assay [2] was 1.4 µg/mL; with Escherichia coli it was above 0.46 µg/mL; in the assay on Rhodotorula aurantiaca (setting [3]), 1000 µg/mL; in the assay with Salmonella typhimurium, 12.3 µg/mL; with Streptococcus pneumoniae, 1.4 µg/mL.
Take `CCN(CC)CCn1nc2c3c(c(NCCNCCO)ccc31)Oc1ccc(O)cc1-2` [Example 14]: the IC50 in the assay with L1210 cells was 0.048 µM. Further, the response vs control in vivo at 6.25 mg/kg in assay [1] turned out to be 236%. The response vs control in vivo at 12.5 mg/kg in assay [1] was found to be 272%. In addition, the MIC in assay [2] is 33 µg/mL (≈ 77.5 µM); in the assay with Escherichia coli, 11 µg/mL (≈ 25.8 µM); in the assay on Rhodotorula aurantiaca (setting [3]), above 33 µg/mL; with Salmonella typhimurium, above 33 µg/mL; in the assay with Streptococcus pneumoniae it was 11 µg/mL (≈ 25.8 µM).
`O=C(CNCCO)Nc1ccc2c3c(nn2CCNCCO)-c2cc(O)ccc2Oc13` [Example 17, 2-[2-[(2-Hydroxyethyl)amino]ethyl]-9-hydroxy-2H-[1]benzopyrano[4,3,2-cd]indazol-5-yl]-2-[(2-hydroxyethyl)amino]acetamide, hydrochloride]: the IC50 with L1210 cells worked out at 1.7 µM. Besides, the response vs control in vivo at 60 mg/kg in assay [1] (Dose 60 mg/kg intraperitoneally once daily for five days) is 134%. Further, in assay [1] (Dose 120 mg/kg intraperitoneally once daily for five days), the response vs control in vivo at 120 mg/kg came out at 142%. In addition, the response vs control in vivo at 240 mg/kg in assay [1] (Dose 240 mg/kg intraperitoneally once daily for five days) came to 184%. Also, the MIC in assay [2] is 333 µg/mL; in the assay with Escherichia coli, 1000 µg/mL; in the assay on Rhodotorula aurantiaca (setting [3]), 1000 µg/mL; with Salmonella typhimurium it was above 1000 µg/mL; in the assay on Streptococcus pneumoniae, above 1000 µg/mL.
With `Cl.Nc1ccc2c3c(nn2CCNCCO)-c2cc(O)ccc2Oc13` [Example 16, 5-Amino-2-[2-[(2-hydroxyethyl)amino]ethyl]-2H-[1]benzopyrano[4,3,2-cd]indazol-9-ol, hydrochloride], the IC50 with L1210 cells was 0.12 µM. The response vs control in vivo at 6.25 mg/kg in assay [1] stood at 165%. For the same compound, in assay [1], the response vs control in vivo at 12.5 mg/kg worked out at 200%. Moreover, the response vs control in vivo at 25 mg/kg in assay [1] stood at 260%. Moreover, the MIC was 12.3 µg/mL in assay [2]; 4.1 µg/mL with Escherichia coli; above 1000 µg/mL in the assay with Rhodotorula aurantiaca (setting [3]); 37 µg/mL in the assay on Salmonella typhimurium; 37 µg/mL with Streptococcus pneumoniae.
For `CCN(CC)CCn1nc2c3c(c(NC(=O)CNCCO)ccc31)Oc1ccc(O)cc1-2.Cl` [Example 13, N-[2-[2-(Diethylamino)ethyl]-9-hydroxy-2H-[1]benzopyrano[4,3,2-cd]indazole-5-yl]-2-[(2-hydroxyethyl)-amino]acetamide, hydrochloride], the IC50 with L1210 cells was determined as 0.0057 µM. For the same compound, the response vs control in vivo at 25 mg/kg in assay [1] was 198%. In addition, the response vs control in vivo at 50 mg/kg in assay [1] is 227%. In addition, in assay [1], the response vs control in vivo at 100 mg/kg came to 272%. The MIC in assay [2] is 333 µg/mL; in the assay on Escherichia coli, 111 µg/mL; with Rhodotorula aurantiaca (setting [3]), above 1000 µg/mL; in the assay on Salmonella typhimurium, above 1000 µg/mL; in the assay with Streptococcus pneumoniae, 333 µg/mL.
As to `CCN(CC)CCn1nc2c3c(c([N+](=O)[O-])ccc31)Oc1ccc(OC)cc1-2` [Example 5, N,N-Diethyl-9-methoxy-5-nitro-2H-[1]benzopyrano-[4,3,2-cd]indazole-2-ethanamine, methanesulfonate (1: 1)], the IC50 in the assay with L1210 cells turned out to be 0.92 µM. Also, in assay [1], the response vs control in vivo at 25 mg/kg is 126%. Further, the response vs control in vivo at 50 mg/kg in assay [1] turned out to be 148%. Further, the response vs control in vivo at 100 mg/kg in assay [1] came to 192%. The MIC in assay [2] is below 0.46 µg/mL; in the assay on Escherichia coli, below 0.46 µg/mL; with Rhodotorula aurantiaca it was 111 µg/mL; with Salmonella typhimurium it was 111 µg/mL; with Streptococcus pneumoniae, below 0.46 µg/mL.

Values taken from EP0172632B1, “Benzopyrano[4,3,2-cd]indazole compounds, processes for their production and pharmaceutical compositions comprising the compounds” (WARNER-LAMBERT COMPANY, priority 1984, dated 1986).
